In PubChem BioAssay (NCI):
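Compound exposure: 48 hours, 5 concentrations, 96-well plates. TGI marks complete inhibition of growth.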

tested on: 786-0 renal; assay: NCI-60 cell line screen, 48 h

SMILES | TGI
CCOP(=O)(OCC)/C(C#N)=C/c1ncc[nH]1 | > 100 µM
Cc1csc2c(=O)n(C3OC(CO)C(O)C3O)c(=O)[nH]c12 (stereo unspecified) | > 100 µM
Cc1csc2[n+]1C(=O)/C(=C\c1ccc([N+](=O)[O-])cc1)S2 | 71.8 µM
CC(C)OC(=O)c1ccc(NCc2cc(O)ccc2O)cc1Cl | 10.8 µM

tested on: A498 renal; assay: NCI-60 cell line screen, 48 h

SMILES | TGI
CCOP(=O)(OCC)/C(C#N)=C/c1ncc[nH]1 | > 100 µM
Cc1csc2c(=O)n(C3OC(CO)C(O)C3O)c(=O)[nH]c12 (stereo unspecified) | > 100 µM
Cc1csc2[n+]1C(=O)/C(=C\c1ccc([N+](=O)[O-])cc1)S2 | 45.5 µM
CC(C)OC(=O)c1ccc(NCc2cc(O)ccc2O)cc1Cl | > 75.9 µM

tested on: A549 NSCLC; assay: NCI-60 cell line screen, 48 h

SMILES | TGI
CCOP(=O)(OCC)/C(C#N)=C/c1ncc[nH]1 | > 100 µM
Cc1csc2c(=O)n(C3OC(CO)C(O)C3O)c(=O)[nH]c12 (stereo unspecified) | > 100 µM
Cc1csc2[n+]1C(=O)/C(=C\c1ccc([N+](=O)[O-])cc1)S2 | > 100 µM
CC(C)OC(=O)c1ccc(NCc2cc(O)ccc2O)cc1Cl | > 76.7 µM

tested on: ACHN renal; assay: NCI-60 cell line screen, 48 h

SMILES | TGI
CCOP(=O)(OCC)/C(C#N)=C/c1ncc[nH]1 | > 100 µM
Cc1csc2c(=O)n(C3OC(CO)C(O)C3O)c(=O)[nH]c12 (stereo unspecified) | > 100 µM
Cc1csc2[n+]1C(=O)/C(=C\c1ccc([N+](=O)[O-])cc1)S2 | 65.7 µM
CC(C)OC(=O)c1ccc(NCc2cc(O)ccc2O)cc1Cl | 7.83 µM

tested on: BT-549 breast; assay: NCI-60 cell line screen, 48 h

SMILES | TGI
CCOP(=O)(OCC)/C(C#N)=C/c1ncc[nH]1 | > 100 µM
Cc1csc2c(=O)n(C3OC(CO)C(O)C3O)c(=O)[nH]c12 (stereo unspecified) | > 100 µM
CC(C)OC(=O)c1ccc(NCc2cc(O)ccc2O)cc1Cl | 1.57 µM

tested on: CAKI-1 renal; assay: NCI-60 cell line screen, 48 h

SMILES | TGI
CCOP(=O)(OCC)/C(C#N)=C/c1ncc[nH]1 | > 100 µM
Cc1csc2c(=O)n(C3OC(CO)C(O)C3O)c(=O)[nH]c12 (stereo unspecified) | > 100 µM
Cc1csc2[n+]1C(=O)/C(=C\c1ccc([N+](=O)[O-])cc1)S2 | 56.4 µM
CC(C)OC(=O)c1ccc(NCc2cc(O)ccc2O)cc1Cl | 3.02 µM

tested on: CCRF-CEM leukemia; assay: NCI-60 cell line screen, 48 h

SMILES | TGI
CCOP(=O)(OCC)/C(C#N)=C/c1ncc[nH]1 | > 100 µM
Cc1csc2c(=O)n(C3OC(CO)C(O)C3O)c(=O)[nH]c12 (stereo unspecified) | > 100 µM
Cc1csc2[n+]1C(=O)/C(=C\c1ccc([N+](=O)[O-])cc1)S2 | > 100 µM

tested on: COLO 205 colon; assay: NCI-60 cell line screen, 48 h

SMILES | TGI
CCOP(=O)(OCC)/C(C#N)=C/c1ncc[nH]1 | > 100 µM
Cc1csc2c(=O)n(C3OC(CO)C(O)C3O)c(=O)[nH]c12 (stereo unspecified) | > 100 µM
Cc1csc2[n+]1C(=O)/C(=C\c1ccc([N+](=O)[O-])cc1)S2 | 39.9 µM
CC(C)OC(=O)c1ccc(NCc2cc(O)ccc2O)cc1Cl | 9.08 µM

tested on: DU-145 prostate; assay: NCI-60 cell line screen, 48 h

SMILES | TGI
CCOP(=O)(OCC)/C(C#N)=C/c1ncc[nH]1 | > 100 µM
Cc1csc2c(=O)n(C3OC(CO)C(O)C3O)c(=O)[nH]c12 (stereo unspecified) | > 100 µM
Cc1csc2[n+]1C(=O)/C(=C\c1ccc([N+](=O)[O-])cc1)S2 | > 100 µM
CC(C)OC(=O)c1ccc(NCc2cc(O)ccc2O)cc1Cl | 26.4 µM

tested on: EKVX NSCLC; assay: NCI-60 cell line screen, 48 h

SMILES | TGI
CCOP(=O)(OCC)/C(C#N)=C/c1ncc[nH]1 | > 100 µM
Cc1csc2c(=O)n(C3OC(CO)C(O)C3O)c(=O)[nH]c12 (stereo unspecified) | > 100 µM
CC(C)OC(=O)c1ccc(NCc2cc(O)ccc2O)cc1Cl | 25.5 µM

tested on: HCC-2998 colon; assay: NCI-60 cell line screen, 48 h

SMILES | TGI
CCOP(=O)(OCC)/C(C#N)=C/c1ncc[nH]1 | > 100 µM
Cc1csc2[n+]1C(=O)/C(=C\c1ccc([N+](=O)[O-])cc1)S2 | 43.9 µM
CC(C)OC(=O)c1ccc(NCc2cc(O)ccc2O)cc1Cl | 17.3 µM

tested on: HCT-116 colon; assay: NCI-60 cell line screen, 48 h

SMILES | TGI
CCOP(=O)(OCC)/C(C#N)=C/c1ncc[nH]1 | > 100 µM
Cc1csc2c(=O)n(C3OC(CO)C(O)C3O)c(=O)[nH]c12 (stereo unspecified) | > 100 µM
Cc1csc2[n+]1C(=O)/C(=C\c1ccc([N+](=O)[O-])cc1)S2 | 38.7 µM
CC(C)OC(=O)c1ccc(NCc2cc(O)ccc2O)cc1Cl | 52.5 µM

tested on: HCT-15 colon; assay: NCI-60 cell line screen, 48 h

SMILES | TGI
CC(C)OC(=O)c1ccc(NCc2cc(O)ccc2O)cc1Cl | 3.95 µM

tested on: HL-60(TB) leukemia; assay: NCI-60 cell line screen, 48 h

SMILES | TGI
CCOP(=O)(OCC)/C(C#N)=C/c1ncc[nH]1 | > 100 µM
Cc1csc2c(=O)n(C3OC(CO)C(O)C3O)c(=O)[nH]c12 (stereo unspecified) | > 100 µM
Cc1csc2[n+]1C(=O)/C(=C\c1ccc([N+](=O)[O-])cc1)S2 | 64.4 µM

tested on: HOP-62 NSCLC; assay: NCI-60 cell line screen, 48 h

SMILES | TGI
CCOP(=O)(OCC)/C(C#N)=C/c1ncc[nH]1 | > 100 µM
Cc1csc2c(=O)n(C3OC(CO)C(O)C3O)c(=O)[nH]c12 (stereo unspecified) | > 100 µM
Cc1csc2[n+]1C(=O)/C(=C\c1ccc([N+](=O)[O-])cc1)S2 | 82.2 µM
CC(C)OC(=O)c1ccc(NCc2cc(O)ccc2O)cc1Cl | > 64.5 µM

tested on: HOP-92 NSCLC; assay: NCI-60 cell line screen, 48 h

SMILES | TGI
CCOP(=O)(OCC)/C(C#N)=C/c1ncc[nH]1 | > 100 µM
Cc1csc2c(=O)n(C3OC(CO)C(O)C3O)c(=O)[nH]c12 (stereo unspecified) | > 100 µM
Cc1csc2[n+]1C(=O)/C(=C\c1ccc([N+](=O)[O-])cc1)S2 | 47.7 µM
CC(C)OC(=O)c1ccc(NCc2cc(O)ccc2O)cc1Cl | 18 µM

tested on: HS 578T breast; assay: NCI-60 cell line screen, 48 h

SMILES | TGI
CCOP(=O)(OCC)/C(C#N)=C/c1ncc[nH]1 | > 100 µM
Cc1csc2c(=O)n(C3OC(CO)C(O)C3O)c(=O)[nH]c12 (stereo unspecified) | > 100 µM
Cc1csc2[n+]1C(=O)/C(=C\c1ccc([N+](=O)[O-])cc1)S2 | 74.3 µM
CC(C)OC(=O)c1ccc(NCc2cc(O)ccc2O)cc1Cl | > 100 µM

tested on: HT29 colon; assay: NCI-60 cell line screen, 48 h

SMILES | TGI
CCOP(=O)(OCC)/C(C#N)=C/c1ncc[nH]1 | > 100 µM
Cc1csc2c(=O)n(C3OC(CO)C(O)C3O)c(=O)[nH]c12 (stereo unspecified) | > 100 µM
Cc1csc2[n+]1C(=O)/C(=C\c1ccc([N+](=O)[O-])cc1)S2 | 60.2 µM
CC(C)OC(=O)c1ccc(NCc2cc(O)ccc2O)cc1Cl | > 93 µM

tested on: IGROV1 ovarian; assay: NCI-60 cell line screen, 48 h

SMILES | TGI
Cc1csc2c(=O)n(C3OC(CO)C(O)C3O)c(=O)[nH]c12 (stereo unspecified) | > 100 µM
CC(C)OC(=O)c1ccc(NCc2cc(O)ccc2O)cc1Cl | 14.7 µM

tested on: K-562 leukemia; assay: NCI-60 cell line screen, 48 h

SMILES | TGI
CCOP(=O)(OCC)/C(C#N)=C/c1ncc[nH]1 | > 100 µM
Cc1csc2c(=O)n(C3OC(CO)C(O)C3O)c(=O)[nH]c12 (stereo unspecified) | > 100 µM
Cc1csc2[n+]1C(=O)/C(=C\c1ccc([N+](=O)[O-])cc1)S2 | > 100 µM

tested on: KM12 colon; assay: NCI-60 cell line screen, 48 h

SMILES | TGI
CCOP(=O)(OCC)/C(C#N)=C/c1ncc[nH]1 | > 100 µM
Cc1csc2c(=O)n(C3OC(CO)C(O)C3O)c(=O)[nH]c12 (stereo unspecified) | > 100 µM
Cc1csc2[n+]1C(=O)/C(=C\c1ccc([N+](=O)[O-])cc1)S2 | 82.1 µM
CC(C)OC(=O)c1ccc(NCc2cc(O)ccc2O)cc1Cl | > 38.1 µM

tested on: LOX IMVI melanoma; assay: NCI-60 cell line screen, 48 h

SMILES | TGI
CCOP(=O)(OCC)/C(C#N)=C/c1ncc[nH]1 | > 100 µM
Cc1csc2c(=O)n(C3OC(CO)C(O)C3O)c(=O)[nH]c12 (stereo unspecified) | > 100 µM
Cc1csc2[n+]1C(=O)/C(=C\c1ccc([N+](=O)[O-])cc1)S2 | 60.4 µM
CC(C)OC(=O)c1ccc(NCc2cc(O)ccc2O)cc1Cl | > 100 µM

tested on: M14 melanoma; assay: NCI-60 cell line screen, 48 h

SMILES | TGI
CCOP(=O)(OCC)/C(C#N)=C/c1ncc[nH]1 | > 100 µM
Cc1csc2c(=O)n(C3OC(CO)C(O)C3O)c(=O)[nH]c12 (stereo unspecified) | > 100 µM
Cc1csc2[n+]1C(=O)/C(=C\c1ccc([N+](=O)[O-])cc1)S2 | > 100 µM
CC(C)OC(=O)c1ccc(NCc2cc(O)ccc2O)cc1Cl | > 100 µM

tested on: MALME-3M melanoma; assay: NCI-60 cell line screen, 48 h

SMILES | TGI
CCOP(=O)(OCC)/C(C#N)=C/c1ncc[nH]1 | > 100 µM
Cc1csc2c(=O)n(C3OC(CO)C(O)C3O)c(=O)[nH]c12 (stereo unspecified) | > 100 µM

tested on: MCF7 breast; assay: NCI-60 cell line screen, 48 h

SMILES | TGI
CCOP(=O)(OCC)/C(C#N)=C/c1ncc[nH]1 | > 100 µM
Cc1csc2c(=O)n(C3OC(CO)C(O)C3O)c(=O)[nH]c12 (stereo unspecified) | > 100 µM
Cc1csc2[n+]1C(=O)/C(=C\c1ccc([N+](=O)[O-])cc1)S2 | > 100 µM
CC(C)OC(=O)c1ccc(NCc2cc(O)ccc2O)cc1Cl | > 45.2 µM

tested on: MDA-MB-231 breast; assay: NCI-60 cell line screen, 48 h

SMILES | TGI
CCOP(=O)(OCC)/C(C#N)=C/c1ncc[nH]1 | > 100 µM
Cc1csc2c(=O)n(C3OC(CO)C(O)C3O)c(=O)[nH]c12 (stereo unspecified) | > 100 µM
Cc1csc2[n+]1C(=O)/C(=C\c1ccc([N+](=O)[O-])cc1)S2 | 68.6 µM
CC(C)OC(=O)c1ccc(NCc2cc(O)ccc2O)cc1Cl | > 54 µM

tested on: MDA-MB-435; assay: NCI-60 cell line screen, 48 h

SMILES | TGI
CCOP(=O)(OCC)/C(C#N)=C/c1ncc[nH]1 | > 100 µM
Cc1csc2c(=O)n(C3OC(CO)C(O)C3O)c(=O)[nH]c12 (stereo unspecified) | > 100 µM
Cc1csc2[n+]1C(=O)/C(=C\c1ccc([N+](=O)[O-])cc1)S2 | 59.9 µM
CC(C)OC(=O)c1ccc(NCc2cc(O)ccc2O)cc1Cl | 23.3 µM

tested on: MDA-N; assay: NCI-60 cell line screen, 48 h

SMILES | TGI
CCOP(=O)(OCC)/C(C#N)=C/c1ncc[nH]1 | > 100 µM
Cc1csc2c(=O)n(C3OC(CO)C(O)C3O)c(=O)[nH]c12 (stereo unspecified) | > 100 µM
Cc1csc2[n+]1C(=O)/C(=C\c1ccc([N+](=O)[O-])cc1)S2 | 75.2 µM
CC(C)OC(=O)c1ccc(NCc2cc(O)ccc2O)cc1Cl | 22.6 µM

tested on: MOLT-4 leukemia; assay: NCI-60 cell line screen, 48 h

SMILES | TGI
CCOP(=O)(OCC)/C(C#N)=C/c1ncc[nH]1 | > 100 µM
Cc1csc2c(=O)n(C3OC(CO)C(O)C3O)c(=O)[nH]c12 (stereo unspecified) | > 100 µM
Cc1csc2[n+]1C(=O)/C(=C\c1ccc([N+](=O)[O-])cc1)S2 | > 100 µM
CC(C)OC(=O)c1ccc(NCc2cc(O)ccc2O)cc1Cl | 8.97 µM

tested on: NCI-H226 lung; assay: NCI-60 cell line screen, 48 h

SMILES | TGI
CCOP(=O)(OCC)/C(C#N)=C/c1ncc[nH]1 | > 100 µM
Cc1csc2c(=O)n(C3OC(CO)C(O)C3O)c(=O)[nH]c12 (stereo unspecified) | > 100 µM
Cc1csc2[n+]1C(=O)/C(=C\c1ccc([N+](=O)[O-])cc1)S2 | 26.9 µM
